From ChEMBL document CHEMBL3600338, “NMR-based conformational analysis of 2',6-disubstituted uridines and antiviral evaluation of new phosphoramidate prodrugs” (Bioorg Med Chem, 2015)
Active and inactive are the calls of the source.

Key:
Vero [1] = experiment: Antiviral activity against Coxsackievirus B3 Nancy infected in African green monkey Vero cells assessed as reduction of viral replication; format: functional, cell-based; conditions: Coxsackievirus B3 (strain Nancy)
rhinovirus B14 = experiment: Antiviral activity against Rhinovirus 14 infected in human HeLa cells assessed as reduction of viral replication; format: functional, organism-based
Hepatitis C virus = experiment: Antiviral activity against Hepatitis C virus genotype 1b Con1 in HuH 5-2 replicon system assessed as reduction of viral replication; format: functional; conditions: Hepacivirus hominis
Enterovirus A71 = experiment: Antiviral activity against Enterovirus 71 infected in human HeLa cells assessed as reduction of viral replication; format: functional, organism-based
Poliovirus 1 = experiment: Antiviral activity against Poliovirus 1 Sabin infected in African green monkey BGM cells assessed as reduction of viral replication; format: functional, organism-based
Chikungunya virus = experiment: Antiviral activity against Chikungunya virus assessed as reduction of viral replication; format: functional
Vero [2] = experiment: Antiviral activity against Coxsackievirus B4 E2 infected in African green monkey Vero cells assessed as reduction of viral replication; format: functional, cell-based; conditions: Coxsackievirus B4 (strain E2)

Measured: Activity

Cc1cc(=O)[nH]c(=O)n1C1O[C@H](COP(=O)(N[C@@H](C)C(=O)OC(C)C)Oc2ccccc2)[C@@H](O)[C@@]1(C)O (some centres not stated)
inactive: all assays above

CC(C)OC(=O)[C@H](C)NP(=O)(OC[C@H]1OC(n2c(C#N)cc(=O)[nH]c2=O)[C@](C)(O)[C@@H]1O)Oc1ccccc1 (some centres not stated)
inactive: all assays above

CC(C)OC(=O)[C@H](C)NP(=O)(OC[C@H]1OC(n2c(C#N)cc(=O)[nH]c2=O)[C@H](O)[C@@H]1O)Oc1ccccc1 (some centres not stated)
inactive: all assays above

CC(C)OC(=O)[C@H](C)NP(=O)(OC[C@H]1OC(n2c(I)cc(=O)[nH]c2=O)[C@H](O)[C@@H]1O)Oc1ccccc1 (some centres not stated)
inactive: all assays above

Cc1cc(=O)[nH]c(=O)n1C1O[C@H](COP(=O)(N[C@@H](C)C(=O)OC(C)C)Oc2ccccc2)[C@@H](O)[C@H]1O (some centres not stated)
inactive: all assays above

CC(C)OC(=O)[C@H](C)NP(=O)(OC[C@H]1OC(n2c(N=[N+]=[N-])cc(=O)[nH]c2=O)[C@H](O)[C@@H]1O)Oc1ccccc1 (some centres not stated)
inactive: all assays above
